Reference: article PMC6214715 (Journal of veterinary pharmacology and therapeutics, 2018)

Experiments:
CYP1A1 = target: T1, CYP1A1 (Canis lupus familiaris, UniProt P56590); type: in vitro ADME, canine; details: recombinant CYP1A1; (+)-M1 10 μM, (+)-M2 0.5 μM
T1 sequence (P56590 1-524): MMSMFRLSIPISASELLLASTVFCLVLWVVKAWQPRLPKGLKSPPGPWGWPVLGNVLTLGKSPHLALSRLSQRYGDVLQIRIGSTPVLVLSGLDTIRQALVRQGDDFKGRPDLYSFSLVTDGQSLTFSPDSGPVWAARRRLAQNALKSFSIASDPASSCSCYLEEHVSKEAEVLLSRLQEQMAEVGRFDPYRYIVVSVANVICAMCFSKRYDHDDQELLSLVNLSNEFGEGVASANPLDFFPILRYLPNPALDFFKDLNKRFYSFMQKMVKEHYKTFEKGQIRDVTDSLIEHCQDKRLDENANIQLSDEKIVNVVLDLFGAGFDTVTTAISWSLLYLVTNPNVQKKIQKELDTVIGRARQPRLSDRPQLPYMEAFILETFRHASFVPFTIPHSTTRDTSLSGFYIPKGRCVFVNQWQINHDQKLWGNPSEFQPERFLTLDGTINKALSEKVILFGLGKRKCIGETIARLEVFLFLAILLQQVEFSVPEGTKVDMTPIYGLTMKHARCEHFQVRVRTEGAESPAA

cat liver microsomes = type: in vitro ADME; details: pooled cat liver microsomes (n = 16); (+)-M1 at 10 μM, (+)-M2 at 0.5 μM
CYP2C41 = target: T2, CYP2C41 (Canis lupus familiaris, UniProt O62671); type: in vitro ADME, canine; details: recombinant CYP2C41; (+)-M1 10 μM, (+)-M2 0.5 μM
T2 sequence (O62671 1-489): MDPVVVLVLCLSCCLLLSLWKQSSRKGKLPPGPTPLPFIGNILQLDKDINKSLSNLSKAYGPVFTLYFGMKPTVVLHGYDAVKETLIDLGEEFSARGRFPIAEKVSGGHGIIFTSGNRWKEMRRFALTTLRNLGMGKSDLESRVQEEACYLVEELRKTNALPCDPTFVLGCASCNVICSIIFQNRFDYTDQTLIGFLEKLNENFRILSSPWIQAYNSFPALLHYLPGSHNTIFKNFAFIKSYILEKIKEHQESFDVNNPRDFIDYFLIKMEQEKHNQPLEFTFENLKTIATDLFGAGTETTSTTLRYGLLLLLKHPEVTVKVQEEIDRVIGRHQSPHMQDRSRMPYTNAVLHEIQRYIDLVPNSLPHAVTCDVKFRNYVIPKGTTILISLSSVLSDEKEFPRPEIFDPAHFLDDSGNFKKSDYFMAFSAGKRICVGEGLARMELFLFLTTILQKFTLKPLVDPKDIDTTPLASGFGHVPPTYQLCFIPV

CN(C)CC1CCCCC1(O)c1cccc(O)c1.Cl (single isomer, unassigned; (+)) [(+)-M1, (+)-O-desmethyltramadol hydrochloride]
formation rate of (+)-M5 (in words) (CYP1A1): only very low activities | (+)-M5 formation rate (in words) (cat liver microsomes): low activities | formation rate of (+)-M5 (in words) (CYP2C41): somewhat lower activities
